Reference: publication PMC11724075, “Small-molecule-induced ERBB4 activation to treat heart failure” (Nature Communications, 2025)
Where “and” joins values, the source holds several entries; their conditions need not be identical. Identical values can stand only once.

Assays:
ERBB1/ERBB1 = molecular target: T1, ERBB1/ERBB1 (Homo sapiens, UniProt P00533); assay: PathHunter U2OS ERBB1/ERBB1 dimerization assay; assay type: cell-based; details: for ERBB1/ERBB1 dimerization signal: relative to signal with EGF, single biological replicates
T1 construct: host or cells: U2OS (osteosarcoma cells), PathHunter engineered line
Protocol: PathHunter U2OS ERBB4/ERBB4 (osteosarcoma cells; Eurofins, 93-0961C3), U2OS ERBB2/ERBB4 (osteosarcoma cells; Eurofins, 493-0960C3), ERBB2/ERBB3 (osteosarcoma cells; Eurofins, 93-1042C3) and ERBB1/ERBB1 (osteosarcoma cells; Eurofins, 93-0989C3) dimerization cell lines were cultured according to the manufacturer’s instructions. Briefly, cells were cultured in Cell Culture Reagent 103 (Eurofins, 92-3103 G) supplemented with 250 µg/mL Hygromycin B (Eurofins, 92-0029) and 500 µg/mL G418 (Eurofins, 92-0030), and were maintained at 37 °C in humidified atmosphere of 5% CO2. HCFs (Innoprot, P10454) were cultured in fibroblast medium (Innoprot, P60108) supplemented with 10% (v/v) fetal bovine serum (FBS, Innoprot), 10% (v/v) fibroblast growth supplement (Innoprot), and 1% (v/v) penicillin/streptomycin solution (Innoprot). iAMs[33] (kindly provided by LUMC) were cultured in Advanced DMEM F-12 (Thermo Fisher Scientific, 12634028) supplemented with 2% (v/v) heat-inactivated FBS (Thermo Fisher Scientific, 10270106), 1% (v/v) penicillin/streptomycin (10,000 units/mL and 10 mg/mL respectively, Thermo Fisher Scientific, 15140122), 1× GlutaMAX (Thermo Fisher Scientific, 35050061), and 100 ng/mL doxycycline (Tocris, 4090) for proliferation. To induce differentiation, iAMs were transferred to medium without doxycycline.
U2OS ERBB4/ERBB4 dimerization cells were seeded at a density of 5 × 10^4 cells/well in 100 µL Cell Plating 0 Reagent, in white 96-well plates (PerkinElmer, 6005680) and incubated for 24 h at 37 °C, 5% CO2. […] Next, 110 µL PathHunter Flash Detection Reagent was added to each well and incubated at RT for 1 h after which the luminescence signal was measured using the Luminoskan Ascent (Thermo Fisher Scientific). […] The same experimental set-up was used for the U2OS ERBB2/ERBB4, U2OS ERBB2/ERBB3 and U2OS ERBB1/ERBB1 dimerization cell lines.

iAMs = assay: Bulk RNA sequencing of cardiomyogenically differentiated iAMs; assay type: cell-based, rat; details: EF-1 32 µM, 16 h, log2-fold change ≥0.58, P adj <0.05
Protocol: iAMs were seeded at a density of 6 ×10^6 cells/mL in differentiation medium in 75-cm^2 cell culture flasks (Greiner Bio-One, 658175) and incubated for 9 days (d0 = day of seeding). HCF were seeded at a density of 3 × 10^6 cells/mL in fibroblast medium in 75-cm^2 cell culture flasks. […] Next, cells were lysed using 350 µL buffer RLT (Qiagen) supplemented with β-mercaptoethanol (100:1; Merck, 444203). Total RNA was isolated using the RNeasy Micro Kit (Qiagen, 74104) according to the manufacturer’s protocol, with an extra step of DNase digestion. The concentration and quality of RNA were determined using a Qubit fluorometer (Thermo Fisher Scientific) and 2100 Agilent BioAnalyzer (Agilent Technologies), respectively. Samples with an RNA integrity number >7 were used for library preparation. Sequencing libraries were prepared by Genewiz/Azenta (Leipzig) on cDNA prepared from polyadenylated mRNA. Libraries were sequenced using a NovaSeq 6000 (Illumina) with a read length of 2 ×150 bp.
Gene expression was quantified at the transcript level using Salmon (v1.10.0)[60], with the validatMappings and -gcBias parameters switched on, to the Rnor_6.0 or GRCh38 transcriptome. […] Functional enrichment of DEGs was determined using a hypergeometric test against the Gene Ontology database by using the ClueGO (v2.5.7)[64] module of Cytoscape (v3.9.1)[65] with Benjamini–Hochberg adjusted (FDR) P < 0.05. […]

Erbb4-null mice = assay: AngII-induced myocardial fibrosis in Erbb4-null mice, Masson's trichrome fibrosis; assay type: in vivo, mouse; parameters: Perivascular fibrosis: dose or concentration left out as unconfirmed
Protocol: Four weeks after implantation, cardiac ultrasound was performed, mice were euthanized, and hearts were collected. A similar set-up was used for the 1-week study (Alzet, model 1007D) in male mice (n = 9-10 mice in every group).
Floxed Erbb4 mice (Erbb4^f/f; C57BL/6N; 129-Erbb4tm1Fej/Mmucd, MMRRC, #010439-UCD) were crossed with CAGGCre-ER^TM mice (Jackson Laboratory, 004682) containing the Tg(CAG-cre/Esr1*)5Amc transgene that expresses Cre recombinase under the control of a chicken beta actin promoter/enhancer coupled to the human cytomegalovirus immediate-early gene enhancer, resulting in expression of tamoxifen-inducible Cre-ERT in most cell types. To induce Cre recombinase-mediated deletion of Erbb4, eleven-week-old female and male iCAGGCre-ER^TM/Erbb4^f/f mice were intraperitoneally injected with tamoxifen (Merck, T5648; 10 mg/kg; in corn oil) daily for 5 consecutive days.
Hearts were fixed in 4% PFA, paraffin-embedded, and cut into 5-µm sections. Images were acquired with an Olympus BX43 microscope (Olympus Stream Motion Software) or a CELENA® S Digital Imaging System and analyzed with ImageJ 2.14.0 software. Collagen distribution was visualized by Masson’s trichrome staining. Cardiac total fibrosis was expressed as the ratio of positively stained fibrotic area (blue) to the total area and perivascular fibrosis as the ratio of fibrotic area to vascular lumen area. Scar size was determined by measuring the scar length over the […]. Hypertrophy and vascularisation were visualized via an isolectin-B4/WGA/DAPI staining. Quantification was performed by a person blinded to the treatment protocol.

T1 sequence (P00533 25-1210): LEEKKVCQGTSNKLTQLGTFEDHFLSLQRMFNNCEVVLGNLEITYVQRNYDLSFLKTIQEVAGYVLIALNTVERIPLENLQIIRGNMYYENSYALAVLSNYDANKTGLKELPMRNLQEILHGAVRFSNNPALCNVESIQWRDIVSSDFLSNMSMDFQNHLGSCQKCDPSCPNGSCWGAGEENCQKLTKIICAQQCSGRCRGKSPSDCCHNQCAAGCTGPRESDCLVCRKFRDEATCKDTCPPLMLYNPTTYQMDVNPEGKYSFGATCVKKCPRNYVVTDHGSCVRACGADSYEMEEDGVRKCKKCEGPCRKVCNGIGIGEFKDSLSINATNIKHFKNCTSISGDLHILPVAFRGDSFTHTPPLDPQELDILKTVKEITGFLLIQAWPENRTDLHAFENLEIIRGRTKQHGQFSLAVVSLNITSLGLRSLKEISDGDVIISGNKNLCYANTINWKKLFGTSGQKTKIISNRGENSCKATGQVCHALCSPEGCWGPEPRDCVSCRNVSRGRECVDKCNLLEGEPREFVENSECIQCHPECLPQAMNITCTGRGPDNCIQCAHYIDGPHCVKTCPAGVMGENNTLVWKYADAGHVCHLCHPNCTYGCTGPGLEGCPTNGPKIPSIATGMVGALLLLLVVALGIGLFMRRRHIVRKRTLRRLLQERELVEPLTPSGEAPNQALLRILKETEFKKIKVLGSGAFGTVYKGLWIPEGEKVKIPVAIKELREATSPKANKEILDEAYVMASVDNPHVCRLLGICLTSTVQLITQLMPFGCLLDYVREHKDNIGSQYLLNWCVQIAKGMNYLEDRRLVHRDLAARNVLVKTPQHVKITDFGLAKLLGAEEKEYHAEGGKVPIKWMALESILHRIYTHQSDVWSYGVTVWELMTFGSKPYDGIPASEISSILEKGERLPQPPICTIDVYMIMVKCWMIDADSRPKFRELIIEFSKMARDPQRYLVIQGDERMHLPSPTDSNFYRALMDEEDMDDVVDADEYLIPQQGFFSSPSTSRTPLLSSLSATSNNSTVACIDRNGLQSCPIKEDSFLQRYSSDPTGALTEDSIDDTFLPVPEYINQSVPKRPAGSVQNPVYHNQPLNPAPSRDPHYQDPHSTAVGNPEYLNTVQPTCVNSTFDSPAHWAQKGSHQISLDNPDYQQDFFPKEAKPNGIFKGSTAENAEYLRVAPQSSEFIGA
T1 sequence (P00533 25-1210): as above

In the case of `O=C(NC1CC1)C(Sc1nc2ccccc2c(=O)n1C1CCCC1)c1ccccc1` (centres unmarked) [EF-1], the EC50 (ERBB1/ERBB1) is reported as > 32 µM, the ERBB1/ERBB1 dimerization signal (ERBB1/ERBB1; 3.125e-8 M) is reported as 0 and the ERBB1/ERBB1 dimerization signal (ERBB1/ERBB1; 6.25e-8 M) is reported as 8.38 and 6.13 and 6.6 and 7.02 and 4.04 and 2.46. For the same compound, the ERBB1/ERBB1 dimerization signal (ERBB1/ERBB1; 1.25e-7 M) was 4.23 and 2.21 and 2.75 and 1.65 (2×) and 1.93, the ERBB1/ERBB1 dimerization signal (ERBB1/ERBB1; 2.5e-7 M) was 5.73 and 2.08 and 2.79 and 4.91 and 2.29 and 1.1 and the ERBB1/ERBB1 dimerization signal (ERBB1/ERBB1; 5e-7 M) was 5.49 and 1.35 and 1.39 and 3.65 and 1.57 and 0.45. The ERBB1/ERBB1 dimerization signal (ERBB1/ERBB1; 1e-6 M) was 6.08 and 3.69 and 2.97 and 5.23 and 2.17 and 1.53, the ERBB1/ERBB1 dimerization signal (ERBB1/ERBB1; 2e-6 M) was 8.8 and 4.67 and 6.18 and 5.92 and 4.48 and 3.39 and the ERBB1/ERBB1 dimerization signal (ERBB1/ERBB1; 4e-6 M) was 15.68 and 13.03 and 10.62 and 10.47 and 7.22 and 7.25. The ERBB1/ERBB1 dimerization signal (ERBB1/ERBB1; 8e-6 M) was 28.31 and 23.51 and 19.8 and 20.63 and 14.67 and 14.01, the ERBB1/ERBB1 dimerization signal (ERBB1/ERBB1; 1.6e-5 M) was 47.08 and 37.9 and 37.11 and 43.5 and 44.59 and 32.06 and the ERBB1/ERBB1 dimerization signal (ERBB1/ERBB1; 3.2e-5 M) was 67.98 and 64.53 and 62.88 and 78.66 and 59.73 and 53.27. The “number of significantly downregulated genes compared to Veh” value (iAMs) was 1120, the “number of significantly upregulated genes compared to Veh” value (iAMs) was 354 and the Total fibrosis (Erbb4-null mice; male+female Erbb4-null mice, AngII/EF-1, AngII 400 ng/kg/day, single animals) was 3.25 and 2.45 and 2.12 and 2.92 and 4.07. For the same compound, the Perivascular fibrosis (Erbb4-null mice; male+female Erbb4-null mice, AngII/EF-1, single animals) was 0.6515 and 1.352 and 0.6814 and 0.7388 and 1.066 and the “effect on AngII-induced interstitial or perivascular fibrosis in Erbb4-null mice (in words)” value (Erbb4-null mice; mouse, in vivo) was “did not significantly prevent interstitial or perivascular AngII-induced fibrosis”.
